Results on 35 molecules are retold here after patent US9604961B2, “Histone demethylase inhibitors” (Celgene Quanticel Research, Inc., priority 2012, dated 2017).

Holding throughout (type): biochemical
In one experiment the target is Jarid1A (Homo sapiens (Human), UniProt P29375). Kind of experiment: Jarid1A in vitro enzyme inhibition assay (TR-FRET). The text has this:
The enzymatic assay of Jarid1A activity is based upon Time Resolved-Fluorescence Resonance Energy Transfer (TR-FRET) detection.
In general terms: Time-resolved FRET reads energy transfer from a long-lived donor to a nearby acceptor.

The target in another experiment is Jarid1B (Homo sapiens (Human), UniProt Q9UGL1). Kind of experiment: Jarid1B in vitro enzyme inhibition assay (TR-FRET).
The next experiment deals with JMJD2C (Homo sapiens (Human), UniProt Q9H3R0). Kind of experiment: JMJD2C in vitro enzyme inhibition assay (TR-FRET).
JMJD2C, sequence (Q9H3R0 2-372): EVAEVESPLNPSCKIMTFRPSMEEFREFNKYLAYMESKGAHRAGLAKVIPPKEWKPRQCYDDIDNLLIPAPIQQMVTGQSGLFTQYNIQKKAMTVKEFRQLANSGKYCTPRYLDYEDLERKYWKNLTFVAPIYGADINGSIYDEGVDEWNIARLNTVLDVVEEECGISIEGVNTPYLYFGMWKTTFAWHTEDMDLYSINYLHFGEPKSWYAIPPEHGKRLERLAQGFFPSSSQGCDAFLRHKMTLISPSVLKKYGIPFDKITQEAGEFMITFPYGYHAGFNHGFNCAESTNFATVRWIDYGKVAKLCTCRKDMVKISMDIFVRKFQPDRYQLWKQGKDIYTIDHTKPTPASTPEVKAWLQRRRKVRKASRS

Jarid1A, sequence (P29375 1-1090): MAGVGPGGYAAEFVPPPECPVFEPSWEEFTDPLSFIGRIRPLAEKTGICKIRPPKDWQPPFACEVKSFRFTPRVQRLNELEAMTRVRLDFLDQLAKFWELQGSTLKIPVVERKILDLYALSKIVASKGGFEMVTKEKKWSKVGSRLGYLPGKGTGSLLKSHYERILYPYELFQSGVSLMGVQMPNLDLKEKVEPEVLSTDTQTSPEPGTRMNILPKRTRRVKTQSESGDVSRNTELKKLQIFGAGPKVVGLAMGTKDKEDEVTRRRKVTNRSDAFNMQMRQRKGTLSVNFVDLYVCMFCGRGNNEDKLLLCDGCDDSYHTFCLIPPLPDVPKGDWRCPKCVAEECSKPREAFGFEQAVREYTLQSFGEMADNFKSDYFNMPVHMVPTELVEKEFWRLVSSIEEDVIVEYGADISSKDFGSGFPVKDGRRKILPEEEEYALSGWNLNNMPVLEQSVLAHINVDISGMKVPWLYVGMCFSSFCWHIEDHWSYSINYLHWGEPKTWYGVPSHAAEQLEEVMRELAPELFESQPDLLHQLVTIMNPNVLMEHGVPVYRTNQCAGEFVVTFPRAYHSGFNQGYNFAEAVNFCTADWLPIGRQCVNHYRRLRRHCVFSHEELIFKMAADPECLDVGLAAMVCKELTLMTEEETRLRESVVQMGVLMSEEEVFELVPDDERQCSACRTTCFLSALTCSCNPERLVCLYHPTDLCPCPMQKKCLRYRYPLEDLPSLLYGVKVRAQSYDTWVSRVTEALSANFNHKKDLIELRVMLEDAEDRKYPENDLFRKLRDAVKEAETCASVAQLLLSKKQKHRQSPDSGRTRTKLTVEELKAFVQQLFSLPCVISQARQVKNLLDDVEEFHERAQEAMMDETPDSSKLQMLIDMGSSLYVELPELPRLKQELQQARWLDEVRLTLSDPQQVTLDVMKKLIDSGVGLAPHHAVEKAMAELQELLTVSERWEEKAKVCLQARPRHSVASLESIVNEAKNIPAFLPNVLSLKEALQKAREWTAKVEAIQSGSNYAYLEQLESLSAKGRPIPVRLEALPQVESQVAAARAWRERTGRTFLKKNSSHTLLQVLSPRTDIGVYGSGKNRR
Jarid1B, sequence (Q9UGL1 2-751): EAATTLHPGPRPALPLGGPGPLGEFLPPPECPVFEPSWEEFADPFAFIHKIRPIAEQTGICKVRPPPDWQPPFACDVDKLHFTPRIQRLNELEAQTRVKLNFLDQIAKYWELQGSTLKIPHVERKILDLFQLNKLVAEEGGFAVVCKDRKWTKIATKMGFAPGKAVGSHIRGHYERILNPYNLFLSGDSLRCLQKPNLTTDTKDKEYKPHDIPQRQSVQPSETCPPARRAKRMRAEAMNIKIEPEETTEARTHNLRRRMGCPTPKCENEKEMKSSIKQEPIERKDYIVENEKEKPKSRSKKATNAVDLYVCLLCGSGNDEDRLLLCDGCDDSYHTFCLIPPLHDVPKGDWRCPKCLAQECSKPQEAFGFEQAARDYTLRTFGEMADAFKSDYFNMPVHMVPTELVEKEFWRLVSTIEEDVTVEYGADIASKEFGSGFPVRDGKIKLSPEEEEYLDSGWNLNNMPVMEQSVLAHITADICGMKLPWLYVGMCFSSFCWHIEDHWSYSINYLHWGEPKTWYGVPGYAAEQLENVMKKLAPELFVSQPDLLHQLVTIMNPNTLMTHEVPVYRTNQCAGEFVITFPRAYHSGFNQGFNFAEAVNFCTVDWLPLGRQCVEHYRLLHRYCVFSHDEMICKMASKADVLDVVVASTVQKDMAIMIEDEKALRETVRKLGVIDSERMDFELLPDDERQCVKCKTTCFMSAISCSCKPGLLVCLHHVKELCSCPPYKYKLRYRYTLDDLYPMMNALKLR
Description for JMJD2C: Baculovirus expressed JMJD2C (GenBank Accession #BC143571, AA 2-372) was purchased from BPS Bioscience (Cat#50105).
The ability of test compounds to inhibit the activity of JMJD2C was determined in 384-well plate format under the following reaction conditions: 0.3 nM JMJD2C, 300 nM H3K9me3-biotin labeled peptide (Anaspec cat #64360), 2 μM alpha-ketoglutaric acid in assay buffer of 50 mM HEPES, pH7.3, 0.005% Brij35, 0.5 mM TCEP, 0.2 mg/ml BSA, 50 μM sodium L-ascorbate, and 2 μM ammonium iron(II) sulfate. Reaction product was determined quantitatively by TR-FRET after the addition of detection reagent Phycolink Streptavidin-allophycocyanin (Prozyme) and Europium-anti-di-methylated histone H3 lysine 9 (H3K9me2) antibody (PerkinElmer) in the presence of 5 mM EDTA in LANCE detection buffer (PerkinElmer) at a final concentration of 50 nM and 1 nM, respectively.
The assay reaction was initiated by the following: 2 μl of the mixture of 900 nM H3K9me3-biotin labeled peptide and 6 μM alpha-ketoglutaric acid with 2 μl of 11-point serial diluted inhibitor in 3% DMSO were added to each well of the plate, followed by the addition of 2 μl of 0.9 nM JMJD2C to initiate the reaction. The reaction mixture was incubated at room temperature for 30 minutes, and terminated by the addition of 6 μl of 5 mM EDTA in LANCE detection buffer containing 100 nM Phycolink Streptavidin-allophycocyanin and 2 nM Europium-anti-H3K9me2 antibody. Plates were read by EnVisionMultilabel Reader in TR-FRET mode (excitation at 320 nm, emission at 615 nm and 665 nm) after 1 hour incubation at room temperature. A ratio was calculated (665/615) for each well and fitted to determine inhibition constant (IC50).

On to “2-{5-[(2-methyl-2H-indazol-5-yl)methoxy]-1H-pyrazol-1-yl}pyridine-4-carboxylic acid [Example 51]”, for which the IC50 on Jarid1A was less than 100 nM; against Jarid1B it was less than 100 nM; against JMJD2C it was 100 to 1000 nM.

Turning to `Cc1cccc(-c2ccnn2-c2cc(C(=O)O)ccn2)c1` [Example 13, 2-(5-m-tolyl-1H-pyrazol-1-yl)isonicotinic acid], the IC50 on Jarid1A, at Jarid1B and against JMJD2C was 100 to 1000 nM each time.

On to `O=C(O)c1ccnc(-n2nccc2-c2ccc(F)c(F)c2)c1` [Example 15, 2-(5-(3,4-difluorophenyl)-1H-pyrazol-1-yl)isonicotinic acid], for which the IC50 against Jarid1A, at Jarid1B and on JMJD2C was 100 to 1000 nM throughout.

On to `O=C(O)c1ccnc(-n2nccc2-c2cccc(F)c2)c1` [Example 16, 2-(5-(3-fluorophenyl)-1H-pyrazol-1-yl)isonicotinic acid], for which the IC50 at Jarid1A, against Jarid1B and on JMJD2C was 100 to 1000 nM in each case.

On to `O=C(O)c1ccnc(-n2nccc2-c2ccc(O)cc2)c1` [Example 18, 2-(5-(4-hydroxyphenyl)-1H-pyrazol-1-yl)isonicotinic acid], for which the IC50 against Jarid1A, at Jarid1B and against JMJD2C was 100 to 1000 nM throughout.

For `CS(=O)(=O)c1ccc(-c2ccnn2-c2cc(C(=O)O)ccn2)cc1` [Example 19, 2-(5-(4-(methylsulfonyl)phenyl)-1H-pyrazol-1-yl)isonicotinic acid], the results for the IC50 at Jarid1A, at Jarid1B and against JMJD2C were 100 to 1000 nM, 100 to 1000 nM and 1000 to 10000 nM, respectively.

For `COc1cc(-c2ccnn2-c2cc(C(=O)O)ccn2)ccc1C` [Example 20, 2-(5-(3-methoxy-4-methylphenyl)-1H-pyrazol-1-yl)isonicotinic acid], the values for the IC50 against Jarid1A, on Jarid1B and at JMJD2C were 100 to 1000 nM, 100 to 1000 nM and 1000 to 10000 nM, respectively.

With `Cc1ccc(-c2ccnn2-c2cc(C(=O)O)ccn2)cc1O` [Example 21, 2-(5-(3-hydroxy-4-methylphenyl)-1H-pyrazol-1-yl)isonicotinic acid], the IC50 at Jarid1A was less than 100 nM; at Jarid1B, less than 100 nM; against JMJD2C it was 100 to 1000 nM.

With `COc1cc(-c2ccnn2-c2cc(C(=O)O)ccn2)ccc1Cl` [Example 22, 2-(5-(4-chloro-3-methoxyphenyl)-1H-pyrazol-1-yl)isonicotinic acid], the IC50 was 100 to 1000 nM against Jarid1A, 100 to 1000 nM at Jarid1B and 1000 to 10000 nM on JMJD2C.

`O=C(O)c1ccnc(-n2nccc2-c2ccc(Cl)c(O)c2)c1` [Example 23, 2-(5-(4-chloro-3-hydroxyphenyl)-1H-pyrazol-1-yl)isonicotinic acid]: the results for the IC50 against Jarid1A, against Jarid1B and at JMJD2C were 100 to 1000 nM, 100 to 1000 nM and 1000 to 10000 nM, respectively.

Take `O=C(O)c1ccnc(-n2nccc2-c2ccc3cn[nH]c3c2)c1` [Example 24, 2-[5-(1H-indazol-6-yl)-1H-pyrazol-1-yl]pyridine-4-carboxylic acid]: the IC50 on Jarid1A fell in the range of 100 to 1000 nM; against Jarid1B, 100 to 1000 nM; against JMJD2C it was 1000 to 10000 nM.

For the molecule `O=C(O)c1ccnc(-n2nccc2-c2ccccc2)c1` [Example 26, 2-(5-phenyl-1H-pyrazol-1-yl)isonicotinic acid], the IC50 on Jarid1A, on Jarid1B and against JMJD2C was 1000 to 10000 nM throughout.

For `CS(=O)(=O)c1ccc(-c2ccnn2-c2cc(C(=O)O)ccn2)cc1O` [Example 28, 2-(5-(3-hydroxy-4-(methylsulfonyl)phenyl)-1H-pyrazol-1-yl)isonicotinic acid], the concentration for half-maximal inhibition (IC50) was 100 to 1000 nM at Jarid1A, 100 to 1000 nM on Jarid1B and 1000 to 10000 nM at JMJD2C.

As for `Cc1ccc(-c2cc(C)nn2-c2cc(C(=O)O)ccn2)cc1` [Example 29, 2-(3-methyl-5-p-tolyl-1H-pyrazol-1-yl)isonicotinic acid], the IC50 against Jarid1A, against Jarid1B and at JMJD2C was 1000 to 10000 nM each time.

Regarding `CCc1cc(-c2ccc(C)cc2)n(-c2cc(C(=O)O)ccn2)n1` [Example 30, 2-(3-ethyl-5-p-tolyl-1H-pyrazol-1-yl)isonicotinic acid], the IC50 lay within 1000 to 10000 nM on Jarid1A, 100 to 1000 nM against Jarid1B and 1000 to 10000 nM against JMJD2C.

Turning to `Cc1ccnn1-c1cc(C(=O)O)ccn1` [Example 31, 2-(5-methyl-1H-pyrazol-1-yl)isonicotinic acid], the results for the IC50 at Jarid1A, against Jarid1B and on JMJD2C were 1000 to 10000 nM, 1000 to 10000 nM and 100 to 1000 nM, respectively.

As to `O=C(O)c1ccnc(-n2nccc2CCc2ccccc2)c1` [Example 34, 2-(5-phenethyl-1H-pyrazol-1-yl)isonicotinic acid], the figures for the IC50 against Jarid1A, against Jarid1B and on JMJD2C were 1000 to 10000 nM, 1000 to 10000 nM and more than 10000 nM, respectively.

As to `Cc1c(-c2ccccc2)cnn1-c1cc(C(=O)O)ccn1` [Example 36, 2-(5-methyl-4-phenyl-1H-pyrazol-1-yl)isonicotinic acid], the IC50 at Jarid1A was 100 to 1000 nM; against Jarid1B it was 100 to 1000 nM; at JMJD2C it was more than 10000 nM.

Take `COc1cc(C)nn1-c1cc(C(=O)O)ccn1` [Example 37, 2-(5-methoxy-3-methyl-1H-pyrazol-1-yl)isonicotinic acid]: the concentration for half-maximal inhibition (IC50) against Jarid1A, on Jarid1B and against JMJD2C was 1000 to 10000 nM in each case.

On to `Cc1cc(OCc2ccccc2)n(-c2cc(C(=O)O)ccn2)n1` [Example 38, 2-(5-(benzyloxy)-3-methyl-1H-pyrazol-1-yl)isonicotinic acid], for which the IC50 is 100 to 1000 nM against Jarid1A, less than 100 nM against Jarid1B and 100 to 1000 nM on JMJD2C.

As to `O=C(O)c1ccnc(-n2nccc2OCc2cccc(F)c2)c1` [Example 41, 2-{5-[(3-fluorobenzyl)oxy]-1H-pyrazol-1-yl}pyridine-4-carboxylic acid], the IC50 against Jarid1A, against Jarid1B and on JMJD2C was less than 100 nM in each case.

Regarding `COc1cccc(COc2ccnn2-c2cc(C(=O)O)ccn2)c1` [Example 42, 2-{5-[(3-methoxybenzyl)oxy]-1H-pyrazol-1-yl}pyridine-4-carboxylic acid], the IC50 against Jarid1A, on Jarid1B and against JMJD2C was less than 100 nM throughout.

Regarding `COc1ccc(COc2ccnn2-c2cc(C(=O)O)ccn2)cc1` [Example 43, 2-{5-[(4-methoxybenzyl)oxy]-1H-pyrazol-1-yl}pyridine-4-carboxylic acid], the results for the IC50 on Jarid1A, at Jarid1B and at JMJD2C were less than 100 nM, less than 100 nM and 100 to 1000 nM, respectively.

In the case of `CCCCc1ccnn1-c1cc(C(=O)O)ccn1` [Example 44, 2-(5-butyl-1H-pyrazol-1-yl)pyridine-4-carboxylic acid], the results for the IC50 at Jarid1A, on Jarid1B and against JMJD2C were 1000 to 10000 nM, 1000 to 10000 nM and more than 10000 nM, respectively.

For the molecule `CCCCc1ccn(-c2cc(C(=O)O)ccn2)n1` [Example 45, 2-(3-butyl-1H-pyrazol-1-yl)pyridine-4-carboxylic acid], the IC50 against Jarid1A, on Jarid1B and against JMJD2C was 100 to 1000 nM in each case.

`O=C(O)c1ccnc(-n2nccc2-c2ccc(Br)cc2)c1` [Example 46, 2-[5-(4-bromophenyl)-1H-pyrazol-1-yl]pyridine-4-carboxylic acid]: the IC50 was in the range of 100 to 1000 nM on Jarid1A, 100 to 1000 nM against Jarid1B and 1000 to 10000 nM on JMJD2C.

As to `CN(C)c1ccc(-c2ccnn2-c2cc(C(=O)O)ccn2)cc1` [Example 47, 2-{5-[4-(dimethylamino)phenyl]-1H-pyrazol-1-yl}pyridine-4-carboxylic acid], the IC50 against Jarid1A was in the range of 100 to 1000 nM; against Jarid1B, 100 to 1000 nM; on JMJD2C, 1000 to 10000 nM.

Consider `Cc1ccc(-c2cc(N)nn2-c2cc(C(=O)O)ccn2)cc1` [Example 48, 2-[3-amino-5-(4-methylphenyl)-1H-pyrazol-1-yl]pyridine-4-carboxylic acid], for which the IC50 against Jarid1A is less than 100 nM; against Jarid1B it was 100 to 1000 nM; at JMJD2C it was 1000 to 10000 nM.

For the molecule `O=C(O)c1ccnc(-n2nccc2OCc2ccc(F)c(F)c2)c1` [Example 52, 2-{5-[(3,4-difluorobenzyl)oxy]-1H-pyrazol-1-yl}pyridine-4-carboxylic acid], the IC50 against Jarid1A is less than 100 nM; on Jarid1B, less than 100 nM; against JMJD2C it was 100 to 1000 nM.

Consider `O=C(O)c1ccnc(-n2nccc2OCc2ccc(Cl)cc2)c1` [Example 53, 2-{5-[(4-chlorobenzyl)oxy]-1H-pyrazol-1-yl}pyridine-4-carboxylic acid], for which the IC50 against Jarid1A, on Jarid1B and at JMJD2C was less than 100 nM throughout.

For `O=C(O)c1ccnc(-n2nccc2OCc2ccc(C(F)(F)F)cc2)c1` [Example 54, 2-(5-{[4-(trifluoromethyl)benzyl]oxy}-1H-pyrazol-1-yl)pyridine-4-carboxylic acid], the figures for the IC50 on Jarid1A, against Jarid1B and against JMJD2C were less than 100 nM, less than 100 nM and 100 to 1000 nM, respectively.

On to `O=C(O)c1ccnc(-n2nccc2OCc2cccc(Cl)c2)c1` [Example 58, 2-{5-[(3-chlorobenzyl)oxy]-1H-pyrazol-1-yl}pyridine-4-carboxylic acid], for which the IC50 at Jarid1A, on Jarid1B and against JMJD2C was less than 100 nM in each case.

As for `O=C(O)c1ccnc(-n2nccc2OCc2ccccc2F)c1` [Example 59, 2-{5-[(2-fluorobenzyl)oxy]-1H-pyrazol-1-yl}pyridine-4-carboxylic acid], the IC50 against Jarid1A, at Jarid1B and against JMJD2C was less than 100 nM each time.

For `O=C(O)c1ccnc(-n2nccc2OCc2cccnc2)c1` [Example 60, 2-[5-(pyridin-3-ylmethoxy)-1H-pyrazol-1-yl]pyridine-4-carboxylic acid], the IC50 against Jarid1A was less than 100 nM; against Jarid1B, less than 100 nM; against JMJD2C, 100 to 1000 nM.

Regarding `O=C(O)c1ccnc(-n2nccc2OCc2ccncc2)c1` [Example 61, 2-[5-(pyridin-4-ylmethoxy)-1H-pyrazol-1-yl]pyridine-4-carboxylic acid], the IC50 at Jarid1A, against Jarid1B and against JMJD2C was less than 100 nM each time.

A word on the IC50: it is the point on the concentration scale where inhibition reaches its midpoint. Read a high IC50 as weaker potency.
